Among the data in ChEMBL document CHEMBL4330134, “Design, synthesis, and bioevaluation of a novel class of (E)-4-oxo-crotonamide derivatives as potent antituberculosis agents” (Bioorg Med Chem Lett, 2019) are MIC values, retold here.

Converted amounts (≈) assume the structure as drawn.

As a reminder, the MIC is the smallest concentration in the dilution series that meets the test's criterion for growth inhibition.

The assay has as its system Mycobacterium tuberculosis. The experiment in a line: Antimycobacterial activity against miltidrug-resistant Mycobacterium tuberculosis. The assay is classed as functional.

In turn, `COC(=O)/C=C/C(=O)c1ccc(OC)cc1` registered a minimal inhibitory concentration (MIC) of 0.25 to 1 µg/mL (≈ 1.14 to 4.54 µM).
